Assay results published in PubChem BioAssay AID192 (DTP/NCI, 2004).
Values joined by “and” are separate entries in the source; they are usually repeats but may differ in a detail not shown here. Identical values can stand only once. Inconclusive results and toxic doses are left out. Rule for the calls: active = survival T/C of 150% or more; inactive = T/C below 125% in these data.

Test system: BDF1 mice, B16 melanoma ip, median survival T/C
Assay: NCI In Vivo Anticancer Drug Screen. Data for tumor model B16 Melanoma (intraperitoneal) in B6D2F1 (BDF1) mice
Conditions: endpoint: median survival time, higher = longer survival
Procedure, shortened: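 Antitumor activity is assessed in mice bearing a transplanted tumor, with survival or tumor size compared against vehicle-dosed controls and expressed as T/C.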

[1] = dose: 50.0 mg/kg/injection, schedule: Q01DX009 (ip), vehicle: saline
[2] = dose: 100.0 mg/kg/injection, schedule: Q01DX009 (ip), vehicle: saline
[3] = dose: 0.25 mg/kg/injection, schedule: Q01DX009 (ip), vehicle: saline
[4] = dose: 0.5 mg/kg/injection, schedule: Q01DX009 (ip), vehicle: saline
[5] = dose: 1.0 mg/kg/injection, schedule: Q01DX009 (ip), vehicle: saline
[6] = dose: 25.0 mg/kg/injection, schedule: Q01DX009 (ip), vehicle: Klucel (hydroxypropylcellulose) (HPC)
[7] = dose: 50.0 mg/kg/injection, schedule: Q01DX009 (ip), vehicle: Klucel (hydroxypropylcellulose) (HPC)
[8] = dose: 100.0 mg/kg/injection, schedule: Q01DX009 (ip), vehicle: Klucel (hydroxypropylcellulose) (HPC)
[9] = dose: 200.0 mg/kg/injection, schedule: Q01DX009 (ip), vehicle: Klucel (hydroxypropylcellulose) (HPC)
[10] = dose: 400.0 mg/kg/injection, schedule: Q01DX009 (ip), vehicle: Klucel (hydroxypropylcellulose) (HPC)
[11] = dose: 6.25 mg/kg/injection, schedule: Q01DX009 (ip), vehicle: saline
[12] = dose: 25.0 mg/kg/injection, schedule: Q01DX009 (ip), vehicle: saline
[13] = dose: 6.25 mg/kg/injection, schedule: Q01DX009 (ip), vehicle: saline with Tween-80

Measured: T/C

OC(Cc1nc2ccccc2s1)(C(F)(F)F)C(F)(F)F
inactive: dose: 100.0 mg/kg/injection, schedule: Q01DX009 (ip), vehicle: saline with Tween-80 111 % of control | dose: 100.0 mg/kg/injection, schedule: Q04DX003 (ip), vehicle: saline with Tween-80 89 % of control | dose: 400.0 mg/kg/injection, schedule: Q01DX009 (ip), vehicle: saline with Tween-80 108 % of control | dose: 400.0 mg/kg/injection, schedule: Q04DX003 (ip), vehicle: saline with Tween-80 102 % of control

Cc1cccc(CN)n1
inactive: [1] 105 % of control | [2] 118 % of control

Cc1c(N)nc(C(CC(N)=O)NCC(N)C(N)=O)nc1C(=O)NC(C(=O)NC(C)C(O)C(C)C(=O)NC(C(=O)NCCc1nc(-c2nc(C(=O)NCCCNC(C)c3ccccc3)cs2)cs1)C(C)O)C(OC1OC(CO)C(O)C(O)C1OC1OC(CO)C(O)C(OC(N)=O)C1O)c1cnc[nH]1 (configuration not stated)
inactive: [3] 105 % of control | [4] 102 % of control | [5] 106 % of control | dose: 2.0 mg/kg/injection, schedule: Q01DX009 (ip), vehicle: saline 110 % of control | dose: 4.0 mg/kg/injection, schedule: Q01DX009 (ip), vehicle: saline 108 % of control | dose: 8.0 mg/kg/injection, schedule: Q01DX009 (ip), vehicle: saline 111 % of control

CNC(=O)NCc1ccc(C(=O)NC(C)C)cc1
inactive: [6] 111 % of control | [7] 98 % of control | [8] 99 % of control | [9] 101 % of control | [10] 101 % of control

c1ccc(C(C2=NCCN2)c2ccccc2)cc1
inactive: dose: 25.0 mg/kg/injection, schedule: Q04DX003 (ip), vehicle: Klucel (hydroxypropylcellulose) (HPC) 105 % of control | dose: 50.0 mg/kg/injection, schedule: Q04DX003 (ip), vehicle: Klucel (hydroxypropylcellulose) (HPC) 91 % of control | dose: 100.0 mg/kg/injection, schedule: Q04DX003 (ip), vehicle: Klucel (hydroxypropylcellulose) (HPC) 95 % of control

Cc1c2cnccc2c(C)c2c1c1ccccc1n2CC1CO1 (configuration not stated)
inactive: dose: 3.75 mg/kg/injection, schedule: Q01DX009 (ip), vehicle: Klucel (hydroxypropylcellulose) (HPC) 117 % of control | dose: 7.5 mg/kg/injection, schedule: Q01DX009 (ip), vehicle: Klucel (hydroxypropylcellulose) (HPC) 114 % of control | dose: 15.0 mg/kg/injection, schedule: Q01DX009 (ip), vehicle: Klucel (hydroxypropylcellulose) (HPC) 121 % of control

CC(C)CN(C)/N=N/c1nc[nH]c1C(N)=O
inactive: dose: 18.75 mg/kg/injection, schedule: Q01DX009 (ip), vehicle: carboxymethylcellulose (CMC) 111 % of control | dose: 75.0 mg/kg/injection, schedule: Q01DX009 (ip), vehicle: carboxymethylcellulose (CMC) 123 % of control

O=C1C(N2CCN(CCO)CC2)=C(N2CC2)C(=O)C(N2CCN(CCO)CC2)=C1N1CC1
inactive: [3] 122 % of control | [4] 122 % of control | [5] 109 % of control

O=C(/C=C/c1ccc2c(c1)OCO2)c1ccc2c(c1)OCO2
inactive: [8] 100 % of control | [9] 110 % of control | [10] 117 % of control

CC(=O)Nc1ccc(C#N)c2ccccc12
inactive: [8] 124 % of control | [9] 111 % of control | [10] 111 % of control

N#CCN(CC#N)CC#N
inactive: dose: 1.56 mg/kg/injection, schedule: Q01DX009 (ip), vehicle: saline 97 % of control | dose: 3.13 mg/kg/injection, schedule: Q01DX009 (ip), vehicle: saline 102 % of control | dose: 3.13 mg/kg/injection, schedule: Q04DX003 (ip), vehicle: saline with Tween-80 113 % of control | [11] 100 % of control | dose: 6.25 mg/kg/injection, schedule: Q04DX003 (ip), vehicle: saline with Tween-80 94 % of control

COc1cccc(CNc2ccc(SC)cc2)c1OC
inactive: [8] 100 % of control | [9] 93 % of control | [10] 93 % of control

O=C(NC(CS)C(=O)O)OCc1ccccc1 (configuration not stated)
inactive: [7] 94 % of control | [8] 94 % of control

C(COCC1CO1)OCC1CO1 (configuration not stated)
inactive: [12] 91 % of control | [1] 113 % of control | [2] 119 % of control

CCC12C=CCN3CCC4(c5cc(C6c7[nH]c8ccccc8c7CCN7CCCCC67)c(OC)cc5N(C)C4C(O)(C(=O)OC)C1OC(C)=O)C32 (configuration not stated)
inactive: dose: 0.06 mg/kg/injection, schedule: Q01DX009 (ip), vehicle: other 98 % of control | dose: 0.13 mg/kg/injection, schedule: Q01DX009 (ip), vehicle: other 96 % of control | dose: 0.25 mg/kg/injection, schedule: Q01DX009 (ip), vehicle: other 96 % of control | dose: 0.5 mg/kg/injection, schedule: Q01DX009 (ip), vehicle: other 108 % of control | dose: 1.0 mg/kg/injection, schedule: Q01DX009 (ip), vehicle: other 108 % of control | dose: 2.0 mg/kg/injection, schedule: Q01DX009 (ip), vehicle: other 108 % of control

COc1cc(OC)c(OC)cc1/C=C\c1ccc2ccccc2[n+]1C
inactive: [11] 93 % of control | dose: 12.5 mg/kg/injection, schedule: Q01DX009 (ip), vehicle: saline 100 % of control | [12] 97 % of control

COc1ccc(CCN2CSC(=S)N(CCc3ccc(OC)c(OC)c3)C2)cc1OC
inactive: [8] 106 % of control | [9] 95 % of control | [10] 95 % of control

CCCCCC/C=C/[N+]([O-])=NC(COC)C(C)O (configuration not stated)
inactive: dose: 5.0 mg/kg/injection, schedule: Q01DX009 (ip), vehicle: Klucel (hydroxypropylcellulose) (HPC) 107 % of control | dose: 10.0 mg/kg/injection, schedule: Q01DX009 (ip), vehicle: Klucel (hydroxypropylcellulose) (HPC) 105 % of control

Clc1ccc2c(c1)/C(=C\c1ccnc3ccccc13)c1cc(Cl)cc(Cl)c1-2
inactive: [13] 93 % of control

OCC(F)(F)C(F)(F)C(F)(F)F
inactive: dose: 75.0 mg/kg/injection, schedule: Q01DX009 (ip), vehicle: saline 105 % of control | dose: 150.0 mg/kg/injection, schedule: Q01DX009 (ip), vehicle: saline 106 % of control | dose: 300.0 mg/kg/injection, schedule: Q01DX009 (ip), vehicle: saline 100 % of control

CN(C)N=C1CCCC1
inactive: dose: 16.5 mg/kg/injection, schedule: Q04DX003 (ip), vehicle: saline 107 % of control | dose: 25.0 mg/kg/injection, schedule: Q04DX003 (ip), vehicle: saline 115 % of control | dose: 37.5 mg/kg/injection, schedule: Q04DX003 (ip), vehicle: saline 112 % of control

CC(C)(C)OC(=O)N1CCCC1C(=O)N1CCCC1C(=O)Oc1ccccc1 (configuration not stated)
inactive: [2] 121 % of control | dose: 200.0 mg/kg/injection, schedule: Q01DX009 (ip), vehicle: saline 110 % of control | dose: 400.0 mg/kg/injection, schedule: Q01DX009 (ip), vehicle: saline 114 % of control

c1ccc2cc3c(ccc4ccccc43)cc2c1
inactive: dose: 50.0 mg/kg/injection, schedule: Q01DX009 (ip), vehicle: distilled water + Tween-80 109 % of control | dose: 100.0 mg/kg/injection, schedule: Q01DX009 (ip), vehicle: distilled water + Tween-80 103 % of control | dose: 200.0 mg/kg/injection, schedule: Q01DX009 (ip), vehicle: distilled water + Tween-80 100 % of control

CC(C)N1CSC(=S)N(Cc2ccccc2)C1
inactive: [8] 96 % of control | [9] 105 % of control

Cc1ccc(Cl)cc1NC(=O)Nc1ccccc1Cl
inactive: dose: 0.78 mg/kg/injection, schedule: Q01DX009 (ip), vehicle: saline with Tween-80 88 % of control | dose: 1.56 mg/kg/injection, schedule: Q01DX009 (ip), vehicle: saline with Tween-80 90 % of control | dose: 3.13 mg/kg/injection, schedule: Q01DX009 (ip), vehicle: saline with Tween-80 93 % of control | [13] 90 % of control | [6] 89 % of control

c1cc(NC2CCCCC2)ccc1CN1CCOCC1
inactive: dose: 12.5 mg/kg/injection, schedule: Q01DX009 (ip), vehicle: saline + Tween-80 + alcohol 100 % of control and 104 % of control | dose: 25.0 mg/kg/injection, schedule: Q01DX009 (ip), vehicle: saline + Tween-80 + alcohol 91 % of control and 102 % of control | dose: 50.0 mg/kg/injection, schedule: Q01DX009 (ip), vehicle: saline + Tween-80 + alcohol 91 % of control and 97 % of control | dose: 100.0 mg/kg/injection, schedule: Q01DX009 (ip), vehicle: saline + Tween-80 + alcohol 88 % of control and 97 % of control | dose: 200.0 mg/kg/injection, schedule: Q01DX009 (ip), vehicle: saline + Tween-80 + alcohol 88 % of control and 89 % of control | dose: 400.0 mg/kg/injection, schedule: Q01DX009 (ip), vehicle: saline + Tween-80 + alcohol 95 % of control
